# Assay results reported in patent publication US8933113B2 (Merck Sharp & Dohme Corp., priority 2011, dated 2015).
# Target: T1, full-length human Mineralocorticoid Receptor (MR) (Homo sapiens, UniProt P08235)
# T1 construct: host or cells: PathHunter CHO-K1 cells
# T1 sequence (P08235 1-984): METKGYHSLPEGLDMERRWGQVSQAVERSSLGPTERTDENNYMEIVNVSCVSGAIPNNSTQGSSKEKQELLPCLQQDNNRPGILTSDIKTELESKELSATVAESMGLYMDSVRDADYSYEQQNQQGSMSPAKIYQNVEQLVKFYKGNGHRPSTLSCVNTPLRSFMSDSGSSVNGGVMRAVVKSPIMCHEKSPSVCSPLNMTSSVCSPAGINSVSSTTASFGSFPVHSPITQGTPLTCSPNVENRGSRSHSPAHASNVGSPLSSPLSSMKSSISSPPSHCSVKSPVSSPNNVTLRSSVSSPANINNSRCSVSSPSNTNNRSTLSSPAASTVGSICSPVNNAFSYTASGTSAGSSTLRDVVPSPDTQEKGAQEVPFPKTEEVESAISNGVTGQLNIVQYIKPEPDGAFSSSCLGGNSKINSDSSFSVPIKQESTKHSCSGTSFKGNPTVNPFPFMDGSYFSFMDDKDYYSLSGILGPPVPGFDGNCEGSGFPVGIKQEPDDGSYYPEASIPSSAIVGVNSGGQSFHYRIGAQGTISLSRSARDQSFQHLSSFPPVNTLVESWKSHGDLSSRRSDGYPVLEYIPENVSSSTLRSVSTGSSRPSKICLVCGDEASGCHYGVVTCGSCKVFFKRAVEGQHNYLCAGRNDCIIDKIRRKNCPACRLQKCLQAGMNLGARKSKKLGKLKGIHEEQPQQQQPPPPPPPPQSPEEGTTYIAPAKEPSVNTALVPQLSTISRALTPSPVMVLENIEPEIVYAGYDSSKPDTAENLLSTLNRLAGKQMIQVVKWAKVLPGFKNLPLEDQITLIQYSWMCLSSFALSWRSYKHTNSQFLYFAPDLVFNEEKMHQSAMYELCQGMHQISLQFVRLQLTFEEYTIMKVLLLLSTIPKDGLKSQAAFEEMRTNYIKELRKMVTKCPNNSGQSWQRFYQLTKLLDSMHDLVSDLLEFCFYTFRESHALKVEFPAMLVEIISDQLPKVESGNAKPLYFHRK
# Test: human MR NH Pro assay (PathHunter Protein:Protein interaction assay), MR antagonist activity
# Assay type: cell-based
# Settings: PathHunter CHO-K1 cells overexpressing human MR; aldosterone about 0.3 nM; 6 hours at 37° C.; luminescence; read-out: Primary Assay IP rating (IP = inflection point for a given dose-response titration curve)
# How it was run: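 PathHunter enzyme-complementation assay in cells of full-length human MR recruitment of a coactivator peptide, run in antagonist mode against aldosterone at about 0.3 to 1.0 nM final. Compounds are in a 10-point, 1:3 series from a 4.4 mM top. Incubation is 6 h at 37° C, then detection reagent for 1 h at RT, with a luminescence read-out.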
row,IC50,SMILES
1,100 to 500 nM,"CCC(CO)(c1ccc(C(F)(F)F)cc1)n1ncc2c(NS(C)(=O)=O)cccc21 (centres unmarked) [Compound 89, N-(1-(1-hydroxy-2-(4-(trifluoromethyl)phenyl)butan-2-yl)-1H-indazol-4-yl)methanesulfonamide]"
2,< 100 nM,CCC(c1ccc(Cl)cc1)(n1ncc2c(NS(=O)(=O)NC)cccc21)C(C)(C)O (centres unmarked) [Compound 94]
3,100 to 500 nM,"CCC(c1ccc(Cl)cc1)(n1ncc2c(NS(=O)(=O)N(C)C)cccc21)C(C)(C)O (centres unmarked) [Compound 95, 3-(1-(3-(4-chlorophenyl)-2-hydroxy-2-methylpentan-3-yl)-1H-indazol-4-yl)-1,1-dimethyl-sulfonylurea]"
4,< 100 nM,"CCC(C(C)=O)(c1ccc(Cl)cc1)n1ccc2c(NS(C)(=O)=O)cccc21 (centres unmarked) [Compound 99, N-(1-(3-(4-chlorophenyl)-2-oxopentan-3-yl)-1H-indol-4-yl)methanesulfonamide]"
5,< 100 nM,CCC(C(C)=O)(c1ccc(Cl)cc1)n1ncc2c(NS(=O)(=O)NC)cccc21 (centres unmarked) [Compound 105]
6,< 100 nM,"CCC(c1ccc(Cl)cc1Cl)(C(C)O)n1ccc2c(NS(C)(=O)=O)cccc21 (centres unmarked) [Compound 110, N-(1-(3-(2,4-dichlorophenyl)-2-hydroxypentan-3-yl)-1H-indol-4-yl)methanesulfonamide]"
7,< 100 nM,CCC(c1ccc(Cl)cc1)(C(C)O)n1ncc2c(NS(=O)(=O)NC)cccc21 (centres unmarked) [Compound 118]
8,< 100 nM,"CCC(c1ccc(Cl)cc1)(C(C)O)n1ncc2c(NS(=O)(=O)N(C)C)cccc21 (centres unmarked) [Compound 119, 3-(1-(3-(4-chlorophenyl)-2-hydroxypentan-3-yl)-1H-indazol-4-yl)-1,1-dimethyl-sulfonylurea]"
9,< 100 nM,"CCC(c1ccc(Cl)cc1)(C1CC1C#N)n1ncc2c(NS(C)(=O)=O)cccc21 (centres unmarked) [Compound 120, N-(1-(1-(4-chlorophenyl)-1-(2-cyanocyclopropyl)propyl)-1H-indazol-4-yl)methanesulfonamide]"
10,< 100 nM,"CCC(/C=C/C#N)(c1ccc(Cl)cc1)n1ncc2c(NS(C)(=O)=O)cccc21 (centres unmarked) [Compound 129, (E)-N-(1-(3-(4-chlorophenyl)-1-cyanopent-1-en-3-yl)-1H-indazol-4-yl)methanesulfonamide]"

# More lines, now with the values behind:
row,SMILES,IC50
1,"CC[C@@](c1ccc(Cl)cc1)(c1nc(-c2ccccc2)n[nH]1)n1ccc2c(NS(C)(=O)=O)cccc21 [Compound 64, (R)—N-{1-[1-(4-chlorophenyl)-1-(3-phenyl-1H-1,2,4-triazol-5-yl)propyl]-1H-indol-4-yl}methanesulfonamide]",500 to 5000 nM
2,"CC[C@@](c1ccc(Cl)cc1)(c1nnc(C)[nH]1)n1ccc2c(NS(C)(=O)=O)cccc21 [Compound 65, (R)—N-{1-[1-(4-chlorophenyl)-1-(5-methyl-4H-1,2,4-triazol-3-yl)propyl]-1H-indol-4-yl}methanesulfonamide]",100 to 500 nM
3,"CC[C@@](c1ccc(Cl)cc1)(c1nnc(C(F)(F)F)[nH]1)n1ccc2c(NS(C)(=O)=O)cccc21 [Compound 66, (R)—N-(1-{1-(4-chlorophenyl)-1-[5-(trifluoromethyl)-4H-1,2,4-triazol-3-yl]propyl}-1H-indol-4-yl)methanesulfonamide]",100 to 500 nM
4,"CC[C@@](c1ccc(Cl)cc1)(c1nnc(C2CC2)o1)n1ccc2c(NS(C)(=O)=O)cccc21 [Compound 67, (R)—N-{1-[1-(4-chlorophenyl)-1-(5-cyclopropyl-1,3,4-oxadiazol-2-yl)propyl]-1H-indol-4-yl}methanesulfonamide]",100 to 500 nM
5,"CCC(c1ccc(Cl)cc1)(c1nnc(C)o1)n1ccc2c(NS(C)(=O)=O)cccc21 (centres unmarked) [Compound 68, N-{1-[1-(4-chlorophenyl)-1-(5-methyl-1,3,4-oxadiazol-2-yl)propyl]-1H-indol-4-yl}methanesulfonamide]",100 to 500 nM
6,"CCC(c1ccc(Cl)cc1)(c1nnc(C(F)(F)F)o1)n1ccc2c(NS(C)(=O)=O)cccc21 (centres unmarked) [Compound 69, N-(1-{1-(4-chlorophenyl)-1-[5-(trifluoromethyl)-1,3,4-oxadiazol-2-yl]propyl}-1H-indol-4-yl)methanesulfonamide]",100 to 500 nM
7,"CCC(c1ccc(Cl)cc1)(c1nnc(-c2ccccc2)o1)n1ccc2c(NS(C)(=O)=O)cccc21 (centres unmarked) [Compound 70, N-{1-[1-(4-chlorophenyl)-1-(5-phenyl-1,3,4-oxadiazol-2-yl)propyl]-1H-indol-4-yl}methanesulfonamide]",500 to 5000 nM
8,"CCC(c1ccc(Cl)cc1)(c1nnc(-c2ccc(Cl)cc2)o1)n1ccc2c(NS(C)(=O)=O)cccc21 (centres unmarked) [Compound 71, N-(1-{1-(4-chlorophenyl)-1-[5-(4-chlorophenyl)-1,3,4-oxadiazol-2-yl]propyl}-1H-indol-4-yl)methanesulfonamide]",< 100 nM
9,"CCC(c1ccc(Cl)cc1)(c1nnc(-c2ccc(F)cc2)o1)n1ccc2c(NS(C)(=O)=O)cccc21 (centres unmarked) [Compound 72, N-(1-{1-(4-chlorophenyl)-1-[5-(4-fluorophenyl)-1,3,4-oxadiazol-2-yl]propyl}-1H-indol-4-yl)methanesulfonamide]",100 to 500 nM
10,"CCC(c1ccc(Cl)cc1)(c1nnc(-c2ccc(C(F)(F)F)cc2)o1)n1ccc2c(NS(C)(=O)=O)cccc21 (centres unmarked) [Compound 73, N-{1-[1-(4-chlorophenyl)-1-{5-[4-(trifluoromethyl)phenyl]-1,3,4-oxadiazol-2-yl}propyl]-1H-indol-4-yl}methanesulfonamide]",100 to 500 nM
11,"CCC(c1ccc(Cl)cc1)(c1nnc(-c2ccc(OC)cc2)o1)n1ccc2c(NS(C)(=O)=O)cccc21 (centres unmarked) [Compound 74, N-(1-{1-(4-chlorophenyl)-1-[5-(4-methoxyphenyl)-1,3,4-oxadiazol-2-yl]propyl}-1H-indol-4-yl)methanesulfonamide]",100 to 500 nM
12,"CCC(c1ccc(Cl)cc1)(c1nnc(-c2cc(F)cc(F)c2)o1)n1ccc2c(NS(C)(=O)=O)cccc21 (centres unmarked) [Compound 75, N-(1-{1-(4-chlorophenyl)-1-[5-(3,5-difluorophenyl)-1,3,4-oxadiazol-2-yl]propyl}-1H-indol-4-yl)methanesulfonamide]",500 to 5000 nM
13,"CS(=O)(=O)Nc1cccc2c1ccn2C(CC#N)(c1ccc(Cl)cc1)c1nnc(-c2ccccc2)o1 (centres unmarked) [Compound 76, N-{1-[1-(4-chlorophenyl)-2-cyano-1-(5-phenyl-1,3,4-oxadiazol-2-yl)ethyl]-1H-indol-4-yl}methanesulfonamide]",100 to 500 nM
14,"CCC(c1ccc(Cl)cc1)(c1nc(-c2ccccc2)co1)n1ccc2c(NS(C)(=O)=O)cccc21 (centres unmarked) [Compound 77, N-{1-[1-(4-chlorophenyl)-1-(4-phenyl-1,3-oxazol-2-yl)propyl]-1H-indol-4-yl}methanesulfonamide]",500 to 5000 nM
15,COC(=O)C(c1cccc(-c2cccc(OC)c2)c1)n1ccc2c(NS(C)(=O)=O)cccc21 (centres unmarked) [Compound 78],500 to 5000 nM
16,"CS(=O)(=O)Nc1cccc2c1ccn2C1(c2ccc(Cl)cc2)CCNC1=O (centres unmarked) [Compound 84, N-{1-[3-(4-chlorophenyl)-2-oxopyrrolidin-3-yl]-1H-indol-4-yl}methanesulfonamide]",100 to 500 nM
17,"CCC(CO)(c1ccc(Cl)cc1)n1ccc2c(NS(C)(=O)=O)cc(F)cc21 (centres unmarked) [Compound 85, N-(1-(2-(4-chlorophenyl)-1-hydroxybutan-2-yl)-6-fluoro-1H-indol-4-yl)methanesulfonamide]",100 to 500 nM
18,"CCC(CO)(c1ccc(Cl)cc1Cl)n1ccc2c(NS(C)(=O)=O)cccc21 (centres unmarked) [Compound 87, N-(1-(2-(2,4-dichlorophenyl)-1-hydroxybutan-2-yl)-1H-indol-4-yl)methane sulfonamide]",100 to 500 nM
19,"CCC(C(C)=O)(c1ccc(Cl)cc1)n1ccc2c(NS(C)(=O)=O)cc(F)cc21 (centres unmarked) [Compound 98, N-(1-(3-(4-chlorophenyl)-2-oxopentan-3-yl)-6-fluoro-1H-indol-4-yl)methanesulfonamide]",< 100 nM
20,"CCC(CC#N)(c1ccc(C(F)(F)F)cc1)n1ccc2c(NS(C)(=O)=O)cccc21 (centres unmarked) [Compound 126, N-(1-(1-cyano-2-(4-(trifluoromethyl)phenyl)butan-2-yl)-1H-indol-4-yl)methanesulfonamide]",< 100 nM
21,"CCC(/C=C/C#N)(c1ccc(Cl)cc1)n1ccc2c(NS(C)(=O)=O)cccc21 (centres unmarked) [Compound 127, (E)-N-(1-(3-(4-chlorophenyl)-1-cyanopent-1-en-3-yl)-1H-indol-4-yl)methanesulfonamide]",< 100 nM
22,"CCC(/C=C/C#N)(c1ccc(OC)cc1)n1ccc2c(NS(C)(=O)=O)cccc21 (centres unmarked) [Compound 128, (E)-N-(1-(1-cyano-3-(4-methoxyphenyl)pent-1-en-3-yl)-1H-indol-4-yl)methanesulfonamide]",< 100 nM
